According to patent US20090029957A1, “8-BETA-SUBSTITUTED ESTRATRIENES AS SELECTIVELY ACTIVE ESTROGENS” (priority 2007, published 2009):
Read-outs that look alike come from different tables or passages of the source.

Experiments:
hERβ [1] = test: Relative binding affinity to hERβ (Kuiper et al.); set-up: species or system human; settings: quotient of RBA hERβ to hERα
Description: (§1) In this case, it is assumed that ERβ predominates in the rat prostates over ERα, and ERα predominates in rat uteri over ERβ.

[2] = test system: estrogen receptor preparations from rat uteri; test: Competitive 3H-estradiol binding, rat uterus cytosol estrogen receptor; settings: 3H-estradiol as ligand
Description: as §1

[3] = test system: estrogen receptor preparations from rat prostates; test: Competitive 3H-estradiol binding, rat prostate cytosol estrogen receptor; settings: for Rat prost. ER(RBA): 3H-estradiol as ligand; for prost. ER/uterus ER: ratio of RBA rat prostate ER to rat uterus ER
Description: as §1

hERβ [4] = settings: cited from earlier work
adult female rats = test: Dissociation of action of the uterus and pituitary gland (uterus growth and ovulation); type: in vivo, rat; settings: s.c., four times on four consecutive days
Experimental: The studies with respect to the action on uterus growth and ovulation (indirect effect by influencing the secretion of pituitary gland hormones) are performed on adult female rats (body weight of 220-250 g). The substances are subcutaneously administered four times on four consecutive days. The first administration is carried out in the metestrus. One day after the last administration, the autopsy is carried out. The number of oocytes in the Fallopian tube (effect on the ovulation) as well as the uterus weight are determined.

Row | Structure (SMILES) | Rat uterus ER(RBA) ([2]; Table 1, estradiol = 100) | Rat prost. ER(RBA) ([3]; Table 1, estradiol = 100) | Rat uterus ER(RBA) ([2]; Table 2) | Rat prost. ER(RBA) ([3]; Table 2) | prost. ER/uterus ER ([3]; Table 2) | further results
1 | C[C@]12CC[C@H](O)CC1=CCC1C2CC[C@@]2(C)C1CC[C@@H]2O (stereo partly drawn) [5-Andro-stene-diol] | 0.1 | 5 | – | – | – | ERβ/ERα (hERβ [1]): 3; prost. ER/uterus ER ([3]; Table 1): 50; hERβ RBA* (hERβ [4]): 17
2 | C=C[C@@]12CCc3cc(O)ccc3[C@H]1CC[C@@]1(C)[C@H]2CC[C@@H]1O [Compound 2, 8β-Vinyl-estra-1,3,5(10)-3,17β-diol] | – | – | 0.7 | 63 | 90 | –
3 | C[C@]12CCC3c4ccc(O)cc4CCC3C1CC[C@@H]2O (stereo partly drawn) [Estradiol] | 100 | 100 | – | – | – | ED50, dose-dependent ovulation inhibition and increase in uterus weight (adult female rats): 0.004 mg/kg of body weight
4 | C[C@]12CC[C@@H]3c4ccc(O)cc4CC[C@H]3[C@@H]1C[C@@H](O)[C@@H]2O [Estriol] | – | – | – | – | – | hERβ RBA* (hERβ [4]; relative binding affinity, estradiol = 100, cited from Kuiper et al.): 21
5 | C=C[C@@]12CCc3cc(O)ccc3[C@H]1CC[C@@]1(C)[C@H]2C[C@@H](F)[C@@H]1O [Compound 1, 8β-Vinyl-estra-1,3,5(10)-16α-fluoro-3,17β-diol] | – | – | 1.7 | 167 | 98 | –
